From US12527778B2, “Enantiomers of a series of antiviral compounds” (Innovative Molecules GmbH, priority 2017, dated 2026)

Test: aqueous solubility (PBS, pH 7.4), shake flask
Format: physicochemical
Procedure: The aqueous solubility (PBS, pH 7.4) was determined at Eurofins, Cerep, Panlabs according to C. A. Lipinski et al. Adv. Drug Del. Rev. 1997:46, 3.
Measurement of the aqueous solubility was performed according to Lipinski, C. A. et al. Adv. Drug Del. Rev. 1997:46, 3. The relevant information from the literature is described below.
In addition, chromatographic purity (%) was defined as the peak area of the principal peak relative to the total integrated peak area in the HPLC chromatogram of the calibration standard.

Cc1nc(N(C)C(=O)Cc2ccc(-c3cc(F)ccc3F)cc2)sc1S(C)(=N)=O (racemic) [Example 7, 2-(2′,5′-Difluoro-[1,1′-biphenyl]-4-yl)-N-methyl-N-(4-methyl-5-(S-methylsulfonimidoyl)thiazol-2-yl)acetamide]
solubility in comparison to Example 87 (WO2001/047904): significantly increased solubility (at least one order of magnitude)
